Test results published in patent US6849656B1, “Indole-containing and combretastatin-related anti-mitotic and anti-tubulin polymerization agents” (Baylor University, priority 1999, dated 2005).
Values after ≈ are worked out from the molar mass of the structure shown. Like-named read-outs stand apart in the source and are kept apart here.

How the values were obtained:
[1] = system: T1, purified tubulin; experiment: Inhibition of tubulin polymerization assay; assay type: biochemical, bovine
T1 construct: other: at 4 pM
Protocol: IC50 values for tubulin polymerization were determined according to the procedure described in Bai et al. Purified tubulin is obtained from bovine brain cells as described in Hamel and Lin. Various amounts of inhibitor were preincubated for 15 minutes at 37° C. with purified tubulin. After the incubation period, the reaction was cooled and GTP was added to induce tubulin polymerization. Polymerization was then monitored in a Gilford spectrophotometer at 350 nm. The final reaction mixtures (0.25 ml) contained 1.5 mg/ml tubulin, 0.6 mg/ml microtubule-associated proteins (MAPs), 0.5 mM GTP, […], 4% DMSO and 0.1M 4-morpholineethanesulfonate buffer (MES, pH 6.4). IC50 is the amount of inhibitor needed to inhibit tubulin polymerization 50% with respect to the amount of […] that occurs in the absence of inhibitor.

[2] = system: NCI-H460 (Lung-NSC); experiment: cells; assay type: cell-based
Protocol: (§1) 3-(3′,4′,5′-Trimethoxybenzoyl)-2-(4′-methoxyphenyl)-6-methoxyindole was evaluated in terms of growth inhibitory activity against several human cancer cell lines, including pancreas, ovarian, CNS, lung-NSC, colon, and prostate lines. The assay used is described in Monks et al. Briefly, the cell suspensions, diluted according to the particular cell type and the expected target cell density (5,000-40,000 cells per well based on cell growth characteristics), were added by pipet (100 μl) to 96-well microtiter plates. Inoculates were allowed a preincubation time of24-28 hours at 37° C. for stabilization. Incubation with the inhibitor compounds lasted for 48 hours in 5% CO2 atmosphere and 100% humidity. Determination of cell growth was done by in situ fixation of cells, followed by staining with a protein-binding dye, sulforhodamine B (SRB), which binds to the basic amino acids of cellular macromolecules. The solubilized stain was measured spectrophotometrically. G150 is defined as the dosage required to inhibit tumor cell growth by 50%.

[3] = system: DU-145 (Prostate); experiment: Growth inhibition of human cancer cell line DU-145; assay type: cell-based
Protocol: as §1

[4] = system: FADU (Pharynx-sqam); experiment: Growth inhibition of human cancer cell line FADU; assay type: cell-based; conditions: Table I
[5] = system: SW1736 (Thyroid ca); experiment: Growth inhibition of human cancer cell line SW1736; assay type: cell-based; conditions: SW-1736, SW1736, Table I
[6] = system: SK-N-SH (Neuroblast); experiment: Growth inhibition of human cancer cell line SK-N-SH; assay type: cell-based; conditions: Table I
[7] = system: BXPC-3 (Pancreas-a); experiment: Growth inhibition of human cancer cell line BXPC-3; assay type: cell-based
Protocol: as §1

[8] = system: OVCAR-3 (Ovarian); experiment: Growth inhibition of human cancer cell line OVCAR-3; assay type: cell-based
Protocol: as §1

[9] = system: KM20L2 (Colon); experiment: Growth inhibition of human cancer cell line KM20L2; assay type: cell-based
Protocol: as §1

[10] = system: SF-295 (CNS); experiment: Growth inhibition of human cancer cell line SF-295; assay type: cell-based
Protocol: as §1

[11] = system: P388 leukemia cells; experiment: Cytotoxic assay with P388 leukemia cells; assay type: cell-based
[12] = system: NCI-H460 (Lung-NSC); conditions: data from synthesis of phenstatin phosphate (Pettit); cited from earlier work
[13] = system: SF-295 (CNS); conditions: data from synthesis of phenstatin phosphate (Pettit); cited from earlier work
[14] = system: KM20L2 (Colon); conditions: data from synthesis of phenstatin phosphate (Pettit); cited from earlier work
[15] = system: purified tubulin; conditions: reported by Pettit and co-workers, cited from earlier work; for IC50: read-out: IC50 for inhibition of tubulin polymerization
[16] = system: OVCAR-3 (Ovarian); conditions: data from synthesis of phenstatin phosphate (Pettit); cited from earlier work
[17] = read-out: IC50 for inhibition of tubulin polymerization

COc1ccc(/C=C\c2cc(OC)c(OC)c(OC)c2)cc1N [Amine-CA-4 8]
IC50 [1, 17]: 1200 ± 20 nM
GI50 ([2]; Homo sapiens, NCI-H460, read-out: GI50): 0.00068 µg/mL (≈ 0.00216 µM)

COc1ccc(-c2c(C(=O)c3cc(OC)c(OC)c(OC)c3)oc3cc(OC)ccc23)cc1 [2-(3′,4′,5′-trimethoxybenzoyl)-3-(4′-methoxyphenyl)-6-methoxybenzo[b]furan, reference compound]
GI50 ([3]; Homo sapiens, DU-145, Table I, read-out: GI50): 0.062 µg/mL (≈ 0.138 µM)
GI50 [4]: 0.035 µg/mL (≈ 0.078 µM)
GI50 [5]: 0.047 µg/mL (≈ 0.105 µM)
GI50 [6]: 0.025 µg/mL (≈ 0.0557 µM)
GI50 ([7]; Homo sapiens, BXPC-3, Table I, read-out: GI50): 0.038 µg/mL (≈ 0.0847 µM)
GI50 ([2]; Homo sapiens, NCI-H460, Table I, read-out: GI50): 0.041 µg/mL (≈ 0.0914 µM)

COc1ccc(-c2[nH]c3cc(OC)ccc3c2C(=O)c2cc(OC)c(OC)c(OC)c2)cc1 [Indole-based Ligand 33, 3-(3′,4′,5′-trimethoxybenzoyl)-2-(4′-methoxyphenyl)-6-methoxyindole]
GI50 ([8]; Homo sapiens, OVCAR-3, 48 hours, SRB, read-out: GI50): 0.0024 µg/mL (≈ 0.00536 µM)
GI50 ([9]; Homo sapiens, KM-20L2, KM20L2, 48 hours, SRB, read-out: GI50): 0.0017 µg/mL (≈ 0.0038 µM)
GI50 ([3]; Homo sapiens, DU-145, 48 hours, SRB, read-out: GI50): 0.0023 µg/mL (≈ 0.00514 µM)
GI50 ([10]; Homo sapiens, SF-295, 48 hours, SRB, read-out: GI50): 0.0024 µg/mL (≈ 0.00536 µM)
ED50 (effective dosage required to inhibit 50% of cell growth) ([11]; P388 leukemia cells): 0.0133 µg/mL
GI50 ([7]; Homo sapiens, BXPC-3, 48 hours, SRB, read-out: GI50): 0.002 µg/mL (≈ 0.00447 µM)
GI50 ([2]; Homo sapiens, NCI-H460, 48 hours, SRB, read-out: GI50): 0.0026 µg/mL (≈ 0.00581 µM)

CCOP(=O)(Nc1cc(/C=C\c2cc(OC)c(OC)c(OC)c2)ccc1OC)OCC [Phosphoramidate Analog 10, (Z)-1-(3′-Diethylphosphoramidate-4′-methoxyphenyl)-2-(3″,4″,5″-trimethoxyphenyl)ethene]
GI50 ([8]; OVCAR-3): 0.19 µg/mL (≈ 0.421 µM)
LC50 ([8]; OVCAR-3): >10 µg/mL
TGI ([8]; OVCAR-3): 0.86 µg/mL (≈ 1.9 µM)
GI50 ([9]; KM20L2): 0.28 µg/mL (≈ 0.62 µM)
LC50 ([9]; KM20L2): >10 µg/mL
TGI ([9]; KM20L2): 0.61 µg/mL (≈ 1.35 µM)
GI50 ([3]; DU-145): 0.26 µg/mL (≈ 0.576 µM)
LC50 ([3]; DU-145): >10 µg/mL
TGI ([3]; DU-145): 0.26 µg/mL (≈ 0.576 µM)
GI50 ([10]; SF-295): 0.24 µg/mL (≈ 0.532 µM)
LC50 ([10]; SF-295): >10 µg/mL
TGI ([10]; SF-295): >10 µg/mL
GI50 ([11]; P388): 0.31 µg/mL (≈ 0.687 µM)
activity in inhibition of tubulin polymerization [1]: little if any activity
GI50 ([7]; BXPC-3): 0.15 µg/mL (≈ 0.332 µM)
LC50 ([7]; BXPC-3): >10 µg/mL
TGI ([7]; BXPC-3): 0.57 µg/mL (≈ 1.26 µM)
GI50 ([2]; NCI-H460): 0.35 µg/mL (≈ 0.775 µM)
LC50 ([2]; NCI-H460): >10 µg/mL
TGI ([2]; NCI-H460): >10 µg/mL

COc1ccc(C(=O)c2cc(OC)c(OC)c(OC)c2)cc1OP(=O)(O)O [Phenstatin Prodrug]
GI50 [12]: 0.035 µg/mL (≈ 0.0879 µM)
GI50 [13]: 0.012 µg/mL (≈ 0.0301 µM)
GI50 [14]: 0.27 µg/mL (≈ 0.678 µM)
activity in inhibition of tubulin polymerization compared to phenstatin [15]: 40%
IC50 [15]: 21000 ± 3000 nM
GI50 [16]: 0.0025 µg/mL (≈ 0.00628 µM)

COc1ccc(/C=C\c2cc(OC)c(OC)c(OC)c2)cc1OP(=O)(O)O [Combretastatin A-4 Prodrug]
GI50 [12]: 0.029 µg/mL (≈ 0.0732 µM)
GI50 [13]: 0.036 µg/mL (≈ 0.0908 µM)
GI50 [14]: 0.34 µg/mL (≈ 0.858 µM)
inhibition of tubulin polymerization [15]: no inhibition
IC50 [15]: > 80000 nM
GI50 [16]: 0.023 µg/mL (≈ 0.058 µM)

COc1ccc(C(=O)c2cc(OC)c(OC)c(OC)c2)cc1O [Phenstatin, phenstatin]
GI50 [12]: 0.0057 µg/mL (≈ 0.0179 µM)
GI50 [13]: 0.052 µg/mL (≈ 0.163 µM)
GI50 [14]: 0.0004 µg/mL (≈ 0.00126 µM)
IC50 [15]: 1000 ± 200 nM
GI50 [16]: 0.0023 µg/mL (≈ 0.00723 µM)

COc1ccc(-c2[nH]c3cc(OC)ccc3c2C(=O)c2cc(OC)c(OC)c(OC)c2)cc1 [3-(3′,4′,5′-trimethoxybenzoyl)-2-(4′-methoxyphenyl)-6-methoxyindole]
IC50 [1, 17]: 500 to 1500 nM
